# Experiments:
# Experiment in all cases: Cytotoxicity assay, dose response end point
# Format in all cases: cell-based
# 32D-T315I = conditions: chronic myelogenous leukemia, 96 h
# Description: (§1) The following tumor cell lines were tested using a dose response end point assay system with compound (8h). The cells were grown in either DMEM or RPMI supplemented with 10% fetal bovine serum and 1 unit/mL Penicillin-Streptomycin solution. The tumor cells were plated into 6-well dishes at a cell density of 1.0×10^5 cells/mL/well and the test compound was added 24 h. later at various concentrations. Cell counts were determined from duplicate wells after 96 h. of treatment. The total number of viable cells was determined by trypan blue exclusion.
# A431 = conditions: Homo sapiens, A-431; A431, epidermoid carcinoma; 96 h
# Description: as §1
# ASPC-1 = conditions: Homo sapiens, ASPC1; ASPC-1, pancreatic adenocarcinoma; 96 h
# Description: as §1
# BT474 = conditions: Homo sapiens, BT-474; BT474, Breast carcinoma; 96 h
# Description: as §1
# BXPC-3 = conditions: Homo sapiens; BXPC-3, pancreatic adenocarcinoma; 96 h
# Description: as §1
# CAPAN-1 = conditions: Homo sapiens; CAPAN-1, pancreatic ductal adenocarcinoma; 96 h
# Description: as §1
# CEM/C2 = conditions: Homo sapiens; CEM/C2, T-cell leukemia; 96 h
# Description: as §1
# CEM = conditions: Homo sapiens, CCRF-CEM, T-cell leukemia, 96 h
# Description: as §1
# DAUDI = conditions: Homo sapiens, Burkitt's lymphoma, 96 h
# Description: as §1
# DU145 = conditions: Homo sapiens, DU-145; DU145, prostate carcinoma; 96 h
# Description: as §1
# HCT-116 = conditions: Homo sapiens; HCT-116, colon cancer; 96 h
# Description: as §1
# HCT-15 = conditions: Homo sapiens; HCT-15, Dukes' type C colorectal adenocarcinoma; 96 h
# Description: as §1
# HELA = conditions: Homo sapiens, Cervical adenocarinoma, 96 h
# Description: as §1
# HEL = conditions: human erythroleukemia, 96 h
# Description: as §1
# HFL-1 = conditions: Homo sapiens, HFL1; HFL-1, fetal lung fibroblast; 96 h
# Description: as §1
# HL-60/MX2 = conditions: Homo sapiens, HL60/MX2; HL-60/MX2, promyelocytic leukaemia; 96 h
# Description: as §1
# HL-60 = conditions: Homo sapiens; HL-60, promyelocytic leukaemia; 96 h
# Description: as §1
# HPAF-II = conditions: Homo sapiens, pancreatic adenocarcinoma, 96 h
# Description: as §1
# HT-29 = conditions: Homo sapiens; HT-29, colonic adenocarcinoma; 96 h
# Description: as §1
# K562 = conditions: Homo sapiens; K562, chronic myelogenous leukemia; 96 h
# Description: as §1
# KG-1a = conditions: Homo sapiens, acute myelogenous leukemia, 96 h
# Description: as §1
# MES-SA/DX5 = conditions: Homo sapiens; MES-SA/DX5, Uterine sarcoma; 96 h
# Description: as §1
# MES-SA = conditions: Homo sapiens, uterine sarcoma, 96 h
# Description: as §1
# MIA-PaCa-2 = conditions: Homo sapiens; MIA-PaCa-2, pancreatic carcinoma; 96 h
# Description: as §1
# MOLT-4 = conditions: Homo sapiens; MOLT-4, acute lymphoblastic leukemia; 96 h
# Description: as §1
# Nalmalwa = conditions: Burkitt's lymphoma, 96 h
# Description: as §1
# PANC 03.27 = conditions: Homo sapiens, PANC-03-27; PANC 03.27, Pancreatic adenocarcinoma; 96 h
# Description: as §1
# PANC 10.05 = conditions: Homo sapiens, Panc1005; PANC 10.05, pancreatic adenocarcinoma; 96 h
# Description: as §1
# RAJI = conditions: Homo sapiens, Burkitt's lymphoma, 96 h
# Description: as §1
# SU.86.86 = conditions: Homo sapiens; SU.86.86, pancreatic ductal carcinoma; 96 h
# Description: as §1
# U266 = conditions: Homo sapiens, U-266; U266, multiple myeloma; 96 h
# Description: as §1
# U937 = conditions: Homo sapiens, U-937; U937, histiocytic lymphoma; 96 h
# Description: as §1
# Z138C = conditions: mantle cell lymphoma, 96 h
# Description: as §1
smiles,measurement,setting,value
"CN1CCN(c2ccc(Nc3ncc(/C=C/C#N)c(NC4CCCC4)n3)cc2)CC1 [Compound 8h, 3-{4-Cyclopentylamino-2-[4-(4-methylpiperazin-1-yl)phenylamino]pyrimidin-5-yl}acrylonitrile]",GI50,32D-T315I,500 nM
same,GI50,A431,100 nM
same,GI50,ASPC-1,> 5000 nM
same,GI50,BT474,2500 nM
same,GI50,BXPC-3,100 nM
same,GI50,CAPAN-1,100 nM
same,GI50,CEM/C2,1500 nM
same,GI50,CEM,1500 nM
same,GI50,DAUDI,100 nM
same,GI50,DU145,< 500 nM
same,GI50,HCT-116,500 nM
same,GI50,HCT-15,30 nM
same,GI50,HELA,> 5000 nM
same,GI50,HEL,< 250 nM
same,GI50,HFL-1,100 nM
same,GI50,HL-60/MX2,250 nM
same,GI50,HL-60,500 nM
same,GI50,HPAF-II,5000 nM
same,GI50,HT-29,50 nM
same,GI50,K562,40 nM
same,GI50,KG-1a,< 20 nM
same,GI50,MES-SA/DX5,< 20 nM
same,GI50,MES-SA,20 nM
same,GI50,MIA-PaCa-2,> 5000 nM
same,GI50,MOLT-4,100 nM
same,GI50,Nalmalwa,200 nM
same,GI50,PANC 03.27,3000 nM
same,GI50,PANC 10.05,> 5000 nM
same,GI50,RAJI,< 20 nM
same,GI50,SU.86.86,5000 nM
same,GI50,U266,1000 nM
same,GI50,U937,100 nM
same,GI50,Z138C,3000 nM

# Source: patent US9815847B2 (Icahn School of Medicine at Mount Sinai, priority 2013, dated 2017)
